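Grown in 96-well plates, cells were treated for 48 hours with each compound at five concentrations. Insufficient inhibition: endpoint recorded as highest concentration tested. GI50 is the concentration that inhibits growth by half. TGI marks complete inhibition of growth.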
What was measured:
Assay in all cases: DTP human tumour cell line panel, 48 h
HOP-92 NSCLC = system: HOP-92 NSCLC
MDA-MB-435 = system: MDA-MB-435
HL-60(TB) leukemia = system: HL-60(TB) leukemia
SK-MEL-5 melanoma = system: SK-MEL-5 melanoma
CCRF-CEM leukemia = system: CCRF-CEM leukemia
HOP-62 NSCLC = system: HOP-62 NSCLC
A549 NSCLC = system: A549 NSCLC
UO-31 renal = system: UO-31 renal
SF-295 CNS = system: SF-295 CNS
K-562 leukemia = system: K-562 leukemia
NCI-H226 lung = system: NCI-H226 lung
UACC-62 melanoma = system: UACC-62 melanoma
HS 578T breast = system: HS 578T breast
OVCAR-4 ovarian = system: OVCAR-4 ovarian
TK-10 renal = system: TK-10 renal
NCI/ADR-RES ovarian = system: NCI/ADR-RES ovarian
SR leukemia = system: SR leukemia
OVCAR-5 ovarian = system: OVCAR-5 ovarian
OVCAR-8 ovarian = system: OVCAR-8 ovarian
EKVX NSCLC = system: EKVX NSCLC
HCT-116 colon = system: HCT-116 colon
A498 renal = system: A498 renal
COLO 205 colon = system: COLO 205 colon
T-47D breast = system: T-47D breast
SF-268 CNS = system: SF-268 CNS
NCI-H522 lung = system: NCI-H522 lung
SNB-75 CNS = system: SNB-75 CNS
786-0 renal = system: 786-0 renal
CAKI-1 renal = system: CAKI-1 renal
M14 melanoma = system: M14 melanoma
SN12C renal = system: SN12C renal
MALME-3M melanoma = system: MALME-3M melanoma
SK-MEL-28 melanoma = system: SK-MEL-28 melanoma
BT-549 breast = system: BT-549 breast
HT29 colon = system: HT29 colon
UACC-257 melanoma = system: UACC-257 melanoma
LOX IMVI melanoma = system: LOX IMVI melanoma
HCC-2998 colon = system: HCC-2998 colon
SW-620 colon = system: SW-620 colon
SF-539 CNS = system: SF-539 CNS
HCT-15 colon = system: HCT-15 colon
SNB-19 CNS = system: SNB-19 CNS
OVCAR-3 ovarian = system: OVCAR-3 ovarian
RXF 393 renal = system: RXF 393 renal
U251 CNS = system: U251 CNS
KM12 colon = system: KM12 colon
DU-145 prostate = system: DU-145 prostate
RPMI-8226 leukemia = system: RPMI-8226 leukemia
MCF7 breast = system: MCF7 breast
NCI-H460 lung = system: NCI-H460 lung
PC-3 prostate = system: PC-3 prostate
SK-OV-3 ovarian = system: SK-OV-3 ovarian
IGROV1 ovarian = system: IGROV1 ovarian
MOLT-4 leukemia = system: MOLT-4 leukemia
SK-MEL-2 melanoma = system: SK-MEL-2 melanoma
ACHN renal = system: ACHN renal
MDA-MB-231 breast = system: MDA-MB-231 breast

## CCOP(=O)(OCC)OC[C@]12CC[C@@H](C)[C@H](C)C1C1=CC[C@@H]3[C@@]4(C)CCCNC(C)(C)[C@@H]4CC[C@@]3(C)[C@]1(C)CC2 (some centres undefined)
HOP-92 NSCLC
  GI50: 1.51 µM
  TGI: 4.51 µM
MDA-MB-435
  GI50: 1.76 µM
  TGI: 3.31 µM
HL-60(TB) leukemia
  GI50: 1.67 µM
  TGI: 3.47 µM
SK-MEL-5 melanoma
  GI50: 1.69 µM
  TGI: 3.11 µM
CCRF-CEM leukemia
  GI50: 2.53 µM
  TGI: 8.14 µM
HOP-62 NSCLC
  GI50: 1.95 µM
  TGI: 3.93 µM
A549 NSCLC
  GI50: 1.78 µM
  TGI: 3.54 µM
UO-31 renal
  GI50: 1.44 µM
  TGI: 2.93 µM
SF-295 CNS
  GI50: 1.78 µM
  TGI: 3.34 µM
K-562 leukemia
  GI50: 1.57 µM
  TGI: 3.32 µM
NCI-H226 lung
  GI50: 4.98 µM
  TGI: 23.3 µM
UACC-62 melanoma
  GI50: 1.55 µM
  TGI: 3.11 µM
HS 578T breast
  GI50: 2.68 µM
  TGI: 8.09 µM
OVCAR-4 ovarian
  GI50: 2.27 µM
  TGI: 6.13 µM
TK-10 renal
  GI50: 3.49 µM
  TGI: 12.8 µM
NCI/ADR-RES ovarian
  GI50: 1.79 µM
  TGI: 3.39 µM
SR leukemia
  GI50: 1.41 µM
  TGI: 3.64 µM
OVCAR-5 ovarian
  GI50: 1.68 µM
  TGI: 3.09 µM
OVCAR-8 ovarian
  GI50: 1.9 µM
  TGI: 3.96 µM
EKVX NSCLC
  GI50: 1.53 µM
  TGI: 2.96 µM
HCT-116 colon
  GI50: 1.69 µM
  TGI: 3.21 µM
A498 renal
  GI50: 5.08 µM
  TGI: 21.8 µM
COLO 205 colon
  GI50: 2.06 µM
  TGI: 4.23 µM
T-47D breast
  GI50: 1.6 µM
  TGI: 3.78 µM
SF-268 CNS
  GI50: 2.51 µM
  TGI: 9.24 µM
NCI-H522 lung
  GI50: 1.84 µM
  TGI: 3.91 µM
SNB-75 CNS
  GI50: 2.83 µM
  TGI: 15.6 µM
786-0 renal
  GI50: 1.51 µM
  TGI: 2.98 µM
CAKI-1 renal
  GI50: 1.44 µM
  TGI: 2.79 µM
M14 melanoma
  GI50: 1.74 µM
  TGI: 3.32 µM
SN12C renal
  GI50: 1.53 µM
  TGI: 2.94 µM
MALME-3M melanoma
  GI50: 1.65 µM
  TGI: 3.12 µM
SK-MEL-28 melanoma
  GI50: 1.69 µM
  TGI: 3.11 µM
BT-549 breast
  GI50: 4.49 µM
  TGI: 17.6 µM
HT29 colon
  GI50: 1.88 µM
  TGI: 4.09 µM
UACC-257 melanoma
  GI50: 2.13 µM
  TGI: 4.95 µM
LOX IMVI melanoma
  GI50: 1.21 µM
  TGI: 2.56 µM
HCC-2998 colon
  GI50: 1.85 µM
  TGI: 3.42 µM
SW-620 colon
  GI50: 1.82 µM
  TGI: 3.45 µM
SF-539 CNS
  GI50: 1.63 µM
  TGI: 3.04 µM
HCT-15 colon
  GI50: 1.68 µM
  TGI: 3.17 µM
SNB-19 CNS
  GI50: 1.69 µM
  TGI: 3.24 µM
OVCAR-3 ovarian
  GI50: 1.72 µM
  TGI: 3.33 µM
RXF 393 renal
  GI50: 1.31 µM
  TGI: 2.69 µM
U251 CNS
  GI50: 1.65 µM
  TGI: 3.35 µM
KM12 colon
  GI50: 1.91 µM
  TGI: 3.57 µM
DU-145 prostate
  GI50: 1.94 µM
  TGI: 3.71 µM
RPMI-8226 leukemia
  GI50: 2.2 µM
  TGI: 5.7 µM
MCF7 breast
  GI50: 1.59 µM
  TGI: 3.17 µM
NCI-H460 lung
  GI50: 1.83 µM
  TGI: 3.46 µM
PC-3 prostate
  GI50: 1.57 µM
  TGI: 3.15 µM
SK-OV-3 ovarian
  GI50: 3.27 µM
  TGI: 10.6 µM
IGROV1 ovarian
  GI50: 1.57 µM
  TGI: 3 µM
MOLT-4 leukemia
  GI50: 1.52 µM
  TGI: 3.51 µM
SK-MEL-2 melanoma
  GI50: 4.8 µM
  TGI: 20.7 µM
ACHN renal
  GI50: 1.72 µM
  TGI: 3.11 µM
MDA-MB-231 breast
  GI50: 1.7 µM
  TGI: 3.19 µM

Source: PubChem BioAssay (NCI)
